This note sets out measurements from ChEMBL document CHEMBL5036318, “Synthesis and Biological Evaluation of Phosphoester and Phosphorothioate Prodrugs of STING Agonist 3',3'-c-Di(2'F,2'dAMP)” (J Med Chem, 2021).

pEC50: −log10 of the molar value.

A short description of series [1]: Drug uptake in human THP1-Dual cells at 1.25 uM incubated for 2 hrs by HPLC-LS analysis. Format: ADME, cell-based.
The nature of series [2]: Drug metabolism in human THP1-Dual cells assessed as 3',3'-c-di(2'F,2'dAMP) metabolite formation measured after 2 hrs by HPLC analysis. It counts as ADME, cell-based.
The nature of series [3]: Drug metabolism in human THP1-Dual cells assessed as 3',3'-c-di(2'F,2'dAMP) metabolite formation measured after 24 hrs by HPLC analysis. Format: ADME, cell-based.
Series [4] is described as follows: Drug uptake in human THP1-Dual cells at 125 uM incubated for 24 hrs by HPLC-LS analysis. It counts as ADME, cell-based.
Series [5] can be described thus: Drug uptake in human THP1-Dual cells at extra cellular concentration incubated for 24 hrs by HPLC-LS analysis. It counts as ADME, cell-based.
Series [6] addresses T1, Stimulator of interferon genes protein (Homo sapiens, UniProt Q86WV6). The series is described as follows: Activation of wild-type human STING expressed in HEK293T cells co-expressing IRF3-activated ISRE assessed as IRF3 reporter activation measured after 30 mins by luciferase reporter gene assay. It counts as cell-based.
A short description of series [7]: Potency index, ratio of test compound EC50 to prodrug EC50 for induction of INF-gamma production in healthy human PBMC incubated for 16 hrs. It counts as functional.
The nature of series [8]: Induction of TNF-alpha production in healthy human PBMC incubated for 16 hrs. Format: functional, tissue-based.
Series [9] can be described thus: Potency index, ratio of test compound EC50 to prodrug EC50 for induction of INF-alpha production in healthy human PBMC incubated for 16 hrs. Format: functional.
Series [10] can be described thus: Stability in mouse plasma assessed as half life. Format: ADME, cell-free.
Series [11] is described as follows: Stability in human plasma assessed as half life. Format: ADME, cell-free.
Series [12] can be described thus: Induction of INF-gamma production in healthy human PBMC incubated for 16 hrs. It counts as functional, tissue-based.
Series [13] concerns the target T1, Stimulator of interferon genes protein. The series is described as follows: Activation of wild-type human STING expressed in human THP1-Dual cells co-expressing IRF3-activated ISRE assessed as IRF3 reporter activation measured after 7 hrs by luciferase reporter gene assay. Format: cell-based.
Series [14] has the same target. The series is described as follows: Activation of wild-type human STING expressed in HEK293T cells co-expressing IRF3-activated ISRE assessed as IRF3 reporter activation measured after 7 hrs by luciferase reporter gene assay. Format: cell-based. For orientation: In a reporter assay the amount or activity of a reporter protein is the signal.
The target is the same in series [15]. The series is described as follows: Activation of wild-type human STING expressed in digitonin treated human THP1-Dual cells co-expressing IRF3-activated ISRE assessed as IRF3 reporter activation measured after 30 mins by luciferase reporter gene assay. It counts as cell-based.
Series [16] in a line: Potency index, ratio of test compound EC50 to prodrug EC50 for induction of TNF-alpha production in healthy human PBMC incubated for 16 hrs. Format: functional.
A short description of series [17]: Induction of INF-alpha production in healthy human PBMC incubated for 16 hrs. It counts as functional, tissue-based.

T1 sequence (Q86WV6 whole entry): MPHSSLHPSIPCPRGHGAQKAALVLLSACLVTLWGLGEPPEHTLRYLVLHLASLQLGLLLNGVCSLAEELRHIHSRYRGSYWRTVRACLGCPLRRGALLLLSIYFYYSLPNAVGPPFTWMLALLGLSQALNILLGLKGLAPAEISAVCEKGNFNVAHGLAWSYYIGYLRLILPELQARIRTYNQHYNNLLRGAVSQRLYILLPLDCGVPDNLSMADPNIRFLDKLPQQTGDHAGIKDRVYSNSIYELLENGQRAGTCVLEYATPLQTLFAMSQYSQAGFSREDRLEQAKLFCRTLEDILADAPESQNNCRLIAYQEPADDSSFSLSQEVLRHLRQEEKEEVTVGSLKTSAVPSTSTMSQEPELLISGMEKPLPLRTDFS

Turning to `[3H]c1nc2c(N)ncnc2n1[C@@H]1O[C@@H]2CO[P@@](=O)(OCOC(=O)C(C)(C)C)O[C@H]3[C@@H](F)[C@H](n4c([3H])nc5c(N)ncnc54)O[C@@H]3CO[P@@](=O)(OCOC(=O)C(C)(C)C)O[C@H]2[C@H]1F`, the Drug uptake entry in [1] is “Active”. For the same compound, the results for the Drug metabolism result in series [2] and in [3] were “Metabolite_Detected” and “Metabolite_Notdetected”, respectively.

On to `[3H]c1nc2c(N)ncnc2n1[C@@H]1O[C@@H]2COP(=O)(O)O[C@H]3[C@@H](F)[C@H](n4c([3H])nc5c(N)ncnc54)O[C@@H]3COP(=O)(O)O[C@H]2[C@H]1F`, for which the Drug uptake result in series [4] and in series [5] was “Not Active” each time.

As to `CC(C)(C)C(=O)OCO[P@]1(=O)OC[C@H]2O[C@@H](n3cnc4c(N)ncnc43)[C@H](F)[C@@H]2O[P@](=O)(OCOC(=O)C(C)(C)C)OC[C@H]2O[C@@H](n3cnc4c(N)ncnc43)[C@H](F)[C@@H]2O1`, the negative-log EC50 (pEC50) (commonly −log10 of the EC50, conventionally taken in molar units) was 7.52 in [6]; 6.96 in [8]; 7.22 in series [12]; 7.52 in series [13]; 7.70 in series [14]; 6.96 in series [15]. Also, the pEC50 in series [17] is 6.66. The “Ratio EC50” value in series [7] worked out at 148; in series [9], 234; in series [16] it was 279. The half-life – broadly, how long it takes for the measured level to halve – was less than 2 min in series [10] and 1.17 h in series [11].

For the compound `[3H]c1nc2c(N)ncnc2n1[C@@H]1O[C@@H]2CO[P@@](=O)(OCOC(=O)C(C)(C)C)O[C@H]3[C@@H](F)[C@H](n4c([3H])nc5c(N)ncnc54)O[C@@H]3CO[P@](=O)(OCOC(=O)C(C)(C)C)O[C@H]2[C@H]1F`, in series [1], the Drug uptake result was “Active”. In addition, the Drug metabolism entry is “Metabolite_Detected” in series [2] and “Metabolite_Notdetected” in series [3].

Regarding `CC(C)(C)C(=O)OCO[P@@]1(=O)OC[C@H]2O[C@@H](n3cnc4c(N)ncnc43)[C@H](F)[C@@H]2O[P@](=O)(OCOC(=O)C(C)(C)C)OC[C@H]2O[C@@H](n3cnc4c(N)ncnc43)[C@H](F)[C@@H]2O1`, the pEC50 in series [6] is 7.15; in [8], 6.62; in [12] it was 7.15; in series [13], 7.30; in series [14], 7.40; in series [15] it was 6.74. This compound showed a pEC50 in series [17] of 6.36. The “Ratio EC50” value is given as 110 in series [7] and 115 in [9]. The half-life was less than 2 min in [10] and 1 h in [11].
